{
  "source": "patent US9744250B2",
  "about": "“Chemical model of a neurodegenerative disease, method for preparation and uses of same” (priority 2012, dated 2017)",
  "key": {"mitochondrial complex I": {"tested_on": "mitochondrial complex I", "assay": "Spectrophotometric analysis of complex I activity (NADH oxidation)", "format": "biochemical, rat", "procedure": "(§1) The animal was then decapitated in order to collect from the brain either the cortex or the striatum, which were quickly placed in a Potter Elvejhem® containing 6 ml of extraction buffer at 4° C. (250 mM sucrose, 40 mM KCl, 2 mM EGTA, lmg/ml BSA, 20 mM Tris, pH=7.2). This mixture was homogenized to break open the cells and release the mitochondria and then centrifuged at 2000 g for 8 minutes to remove the larger membrane debris and the nuclei from the pellet. The supernatant was then recovered and centrifuged at 13,000 g for 11 minutes. The supernatant was discarded while the pellet containing a mitochondria-rich fraction was resuspended in 500 μl of respiration buffer at 4° C. (300 mM D-mannitol, 10 mM KCl, 10 mM KH2PO4, 5 mM MgCl2, pH=7.2). […]\nThe kinetics of the oxidation reaction of NADH into NAD+ at 340 nm at 37° C. were continuously monitored by spectrophotometry using a JASCO V-530 spectrophotometer or a TECAN 1000M Infinite plate reader, set to a wavelength of 340 nm for 3 min. The amount of mitochondria extract to obtain the maximum activity introduced into the reaction volume was 100 μg with the spectrophotometer and 10 μg with the reader. […] The slope of the kinetics was then measured. […] The inhibition percentage was then calculated."}, "SH-SY5Y neuronal cells": {"tested_on": "SH-SY5Y neuronal cells", "assay": "Cell viability test in MTT", "format": "cell-based, human", "procedure": "Cells from SH-SY5Y human neuroblastomas were cultured in a DMEM medium containing 4.5 g·L^−1 glucose, 10% fetal calf serum, and 1% penicillin/streptomycin, and placed in an incubator at 37° C. with 7% CO2.\nIn the various experiments, the SH-SY5Y cells were seeded at a density of 4×10^4 cells/mL. 24 h after seeding, the cells were exposed to the various test compounds at 37° C. for 24 h, 48 h, 72 h, or 96 h.\nThis test consisted of rapidly measuring cellular metabolic activity in the presence of the study compound at different concentrations, in order to conduct a dose-response study. To do this, the tetrazolium salt MTT, 3-(4,5-dimethylthiazol-2-yl)-2,5-diphenyltetrazolium bromide (Amoroso et al., Biochim Biophys Acta, 1999, 1452(2):151-60), was placed in contact with the cells. MTT is reduced to formazan by living cells that have the capacity to metabolize it, unlike dead cells. To conduct this test, SH-SY5Y neuronal cells in 48-well plates were incubated for 24 h, 48 h, 72 h, and 96 h, with furosemide pyridinium at concentrations ranging from 0 to 1000 μM. Then MTT (0.5 mg/ml final) was added to each well and incubated at 37° C. for 2 h. At the end of incubation, after carefully removing the medium, DMSO was added (200 μL) to dissolve the cell membranes and the formazan crystals formed by the living cells. The toxicity of the molecule was evaluated by determining the amount of reduced MTT, doing so by measuring the absorbance at 550 nm as this value is proportional to the number of living cells. The results were expressed as a function of the values obtained for cells treated only with the solvent used to dissolve the compound of interest. To compare the toxicity of furosemide pyridinium to that of MPP+, the cells were incubated in the presence of MPP+ (0 to 1000 μM) for 6 h. The culture medium was replaced and the cells were incubated at 37° C. for an additional 24 h (no MPP+). Cell survival was measured at the end of these 24 hours of incubation as described above. When evaluating the effect of different concentrations of α-tocopherol (vitamin E), a membrane antioxidant, the cells were pretreated for 24 h with this antioxidant before being exposed to furosemide pyridinium at a concentration of 0.5 mM under the same experimental conditions as above."}, "caspase-8": {"tested_on": "caspase-8", "assay": "Caspase-8 activity (Ac-IETD-AFC cleavage) in SH-SY5Y cells", "format": "cell-based, human", "conditions": "1 mM, 6 h (+24 h without MPP+)", "procedure": "Measurement of the activities of the various caspases is based on the ability of the caspases to cleave specific fluorescent substrates: Ac-DEVD-AFC for caspase-3, Ac-IETD-AFC for caspase-8, or Ac-LEHD-AFC for caspase-9. SH-SY5Y neuronal cells were incubated in 48-well plates with either furosemide pyridinium (1 mM) for 96 h or with MPP+ (1 mM) for 6 h, then 24 h of incubation with no MPP+. After incubation, the cells were trypsinized, then rinsed with PBS and counted, then harvested in 100 μl of buffer containing 30 mM HEPES, 0.3 mM EDTA, 100 mM NaCl, 0.15% Triton X-100, and 10 mM DTT. The cell extract was then incubated for 1 hour at 37° C. with the specific substrate (100 μM) in a 96-well plate. Fluorescence was measured at λex400 nm and λem505 nm in a fluorescence detection plate reader (TECAN Infinite M1000) (Yue et al., supra). The results were expressed as percentages relative to the measured activity of cells cultured under the same conditions and not subjected to any treatment."}, "α-synuclein": {"tested_on": "α-synuclein", "assay": "Cellular accumulation of α-synuclein (Western blot) in SH-SY5Y cells", "format": "cell-based, human", "conditions": "1 mM, 6 h incubation (+24 h without MPP+)", "procedure": "Cells were incubated under the same conditions as above with furosemide pyridinium (1 mM, incubation: 96 h) and MPP+ (1 mM, incubation: 6 h, wait 24 h). After incubation, the cells were trypsinized, rinsed with PBS, counted, then harvested in 100 μl of buffer containing: 250 mM sucrose; 70 mM KCl; 137 mm NaCl; 4.3 mm NaH2PO4; 1.4 mm KH2PO4, pH 7.2; and […] digitonin. Incubation at 4° C. was then conducted for 5 minutes before centrifuging at 13,000 g for 5 minutes to separate the cytosolic and lysosomal fraction from the mitochondrial fraction. Deposits of cytosolic fraction in the Western blot were adjusted according to the number of cells. The protein samples were diluted in 4× Laemmli and were then heated for 3 minutes at 95° C. to denature. They were loaded into the wells of gel. In addition to the samples, a molecular weight marker (Fermentas) was deposited in the gel. […] The transfer was carried out on PVDF membrane. The transfer was done in transfer buffer (25 mM Tris, 192 mM glycine, 10% methanol) overnight at 4° C. and 30V or for 2 hours at 4° C. and 80V. […] Then the membranes were immunolabeled for 1.5 h at room temperature with a primary antibody diluted in 1×PBS/0.2% Tween/3% milk. […] The primary antibody used was anti-α-synuclein, 1:500 (visualized with an anti-rabbit secondary antibody, 1:10,000)."}, "[1]": {"tested_on": "mitochondria isolated from rat cerebral cortex", "assay": "Respiratory control (oxygen consumption, malate/pyruvate) of isolated cerebral cortex mitochondria", "format": "biochemical", "conditions": "increasing concentration", "procedure": "as §1\nAdded to the polarography chamber (Hansatech) were 30 μl of mitochondria solution (0.2 mg), 460 μL of respiration buffer, 5 μl of test compound solution (meaning MPP+ or furosemide pyridinium) (or its solubilizing solvent). […] The effect of the compound on respiratory control was evaluated (ratio of stage 3 to 4), which corresponds to the coupling of the respiratory chain, or in other words the ATP synthesis at complex V and the oxygen consumption due to complexes I to IV. The results are expressed as percentages of the value measured for mitochondria not treated with the test compound (but treated with the solubilizing solvent)."}, "[2]": {"tested_on": "respiratory chain complexes II-V of rat cerebral cortex mitochondria", "assay": "Respiratory control after induction of complex II by succinate and inhibition of complex I by rotenone", "format": "biochemical", "conditions": "1 mM, succinate", "procedure": "as §1\nAdded to the polarography chamber (Hansatech) were 30 μl of mitochondria solution (0.2 mg), 460 μL of respiration buffer, 5 μl of test compound solution (meaning MPP+ or furosemide pyridinium) (or its solubilizing solvent). […] The effect of the compound on respiratory control was evaluated (ratio of stage 3 to 4), which corresponds to the coupling of the respiratory chain, or in other words the ATP synthesis at complex V and the oxygen consumption due to complexes I to IV. The results are expressed as percentages of the value measured for mitochondria not treated with the test compound (but treated with the solubilizing solvent). […]"}},
  "data": [
    {"molecule": "Clc1ccc(-[n+]2ccccc2)cc1.[Cl-]", "note": "[1-(4-chlorophenyl) pyridinium, 1-(4-chlorophenyl) pyridinium chloride]", "values": [
      {"measurement": "inhibition of complex I activity", "setting": "mitochondrial complex I; concentration not given", "result": 95, "unit": "%"}
    ]},
    {"molecule": "Oc1ccc[n+](-c2ccc(Cl)cc2)c1.[Cl-]", "note": "[1-(4-chlorophenyl)-3-hydroxypyridinium, 1-(4-chlorophenyl)-3-hydroxypyridinium chloride]", "values": [
      {"measurement": "inhibition of complex I activity", "setting": "mitochondrial complex I; 0.2 mM", "result": "complete inhibition"}
    ]},
    {"molecule": "C[n+]1ccc(-c2ccccc2)cc1", "note": "[MPP+, reference compound]", "values": [
      {"measurement": "cell death", "setting": "SH-SY5Y neuronal cells; 1 mM, 6 h incubation (+24 h without MPP+)", "result": "massive cell death"},
      {"measurement": "EC50", "setting": "SH-SY5Y neuronal cells; 6 h incubation (+24 h without MPP+), read-out: EC50 (cell survival)", "result": "386 ± 19.2", "unit": "µM"},
      {"measurement": "change in caspase-8 activity", "setting": "caspase-8", "result": "did not induce significant changes"},
      {"measurement": "increase in the total amount of α-synuclein compared to control cells", "setting": "α-synuclein", "result": 319, "unit": "%"},
      {"measurement": "respiratory control of cerebral cortex mitochondria induced by malate/pyruvate", "setting": "[1]", "result": "diminished"},
      {"measurement": "respiratory control of cortex mitochondria after induction by complex II", "setting": "[2]", "result": "not modified"}
    ]},
    {"molecule": "Cc1c(C)c2c(c(C)c1O)CC[C@@](C)(CCC[C@H](C)CCC[C@H](C)CCCC(C)C)O2", "note": "[α-tocopherol]", "values": [
      {"measurement": "concentration at which the protective effect becomes visible", "setting": "SH-SY5Y neuronal cells; 24 h pretreatment, then 0.5 mM furosemide pyridinium", "result": 0.1, "unit": "mg/mL"},
      {"measurement": "cell survival rate after 24 h pretreatment before 0.5 mM furosemide pyridinium", "setting": "SH-SY5Y neuronal cells; 24 h pretreatment, then 0.5 mM furosemide pyridinium 96 h", "result": "increased the cell survival rate in a dose-dependent manner"},
      {"measurement": "increase of cell survival, α-tocopherol alone", "setting": "SH-SY5Y neuronal cells; pretreatment 1 μg/mL, without furosemide pyridinium", "result": 20, "unit": "%"},
      {"measurement": "change of cell survival, α-tocopherol alone", "setting": "SH-SY5Y neuronal cells; pretreatment 0.01 and 0.1 μg/mL, without furosemide pyridinium", "result": "did not change cell survival"}
    ]}
  ]
}
